Results: the CheMixHub viscosity set

Assay: xn = mol fraction of the nth substance listed

CCCOC(C)=O + CCCCCCCCCC
298.15 K, 101.33 kPa
Conditions	viscosity [mPa·s]
x2 = 0.0879	0.565
x2 = 0.1221	0.571
x2 = 0.1602	0.578
x2 = 0.2376	0.591
x2 = 0.3166	0.606
x2 = 0.3821	0.62
x2 = 0.4847	0.644
x2 = 0.6012	0.678
x2 = 0.715	0.718
x2 = 0.8476	0.776
x2 = 0.9258	0.817

ClC(Cl)(Cl)Cl + CCCCOCCO
298.15 K, 101.3 kPa
Conditions	viscosity [mPa·s]
x2 = 0.0054	0.913
x2 = 0.0106	0.919
x2 = 0.0262	0.918
x2 = 0.0778	0.968
x2 = 0.1296	1.035
x2 = 0.1914	1.125
x2 = 0.2889	1.283
x2 = 0.3826	1.47
x2 = 0.4809	1.687
x2 = 0.5388	1.81
x2 = 0.5933	1.935
x2 = 0.6963	2.162
x2 = 0.7923	2.385
x2 = 0.8841	2.589
x2 = 0.9631	2.759

Oc1nc(O)nc(O)n1 + c1ccncc1
Conditions	viscosity [mPa·s]
298.15 K, 101 kPa, x1 = 0.0199	1.038

ClC(Cl)(Cl)Cl + COc1ccccc1
viscosity [mPa·s], 101 kPa
Conditions	x2 = 0.105	x2 = 0.2013	x2 = 0.3026	x2 = 0.3956	x2 = 0.5023	x2 = 0.5968	x2 = 0.699	x2 = 0.797	x2 = 0.8998
298.15 K	0.9408	0.9425	0.9493	0.9547	0.9644	0.9745	0.9834	0.9896	0.9961
303.15 K	0.8895	0.8842	0.8852	0.8927	0.9013	0.9054	0.9147	0.919	0.926
308.15 K	0.8268	0.8263	0.8279	0.8326	0.8397	0.8446	0.8502	0.8547	0.858
313.15 K	0.7762	0.7751	0.7851	0.7777	0.7837	0.7864	0.7919	0.7946	0.7981
